Read-outs that look alike come from different tables or passages of the source. Where a SMILES comes first, the peptide text is derived from it. [ ]: non-standard residue; d: D form. Nle = CCCC[C@H](N)C(=O)O
What was measured:
Format in all cases: biochemical
[1] = molecular target: T1, yeast proteasome β1/β1' (PGPH) (Saccharomyces cerevisiae, UniProt P38624); experiment: Proteasome assay, PGPH activity (fluorogenic substrate Z-Leu-Leu-Gly-βNA); parameters: endogenous in cells; host or cells: Saccharomyces cerevisiae (isolated native complex; purification, strain and supplier not described); conditions: 6.67 nM proteasome, Tris-buffer pH 7.5, incubated with inhibitor 1 h at 37°C, Z-Leu-Leu-Gly-βNA 40 µM, read-out: Inhibition of yeast proteasome (IC50) β1/β1'
Experimental: (§1) A solution of proteasome from Saccharomyces cerivisiae in Tris-buffer (pH 7.5; 450 µl; 6.67 nM for PGPH, 5.56 nM for trypsin-like and 1.11 nM for chymotrypsin-like activity) was incubated with the inhibitors at varying concentrations ([…]) for 1 h at 37°C. The fluorogenic substrates for PGPH (Z-Leu-Leu-Gly-βNA, 40 µM), trypsin-like (Bz-Phe-Val-Arg-AMC, 8 µM) and chymotrypsin-like assays (Suc-Leu-Leu-Val-Tyr-AMC, 8 µM) were dissolved in the same Tris-buffer with a minimum amount of DMSO and added to the enzyme solution at 37 °C to reach a final volume of 500 µl. Fluorescence excitation/emission wavelengths were 360 nm/460 nm for AMC and 335 nm/410 nm for βNA. The rates of hydrolysis were monitored by the fluorescence increase and the initial linear portions of curves (100-300 sec) were used to calculate the IC50 values.

[2] = molecular target: T2, yeast proteasome β2/β2' (trypsin-like activity) (Saccharomyces cerevisiae, UniProt P25043); experiment: Proteasome assay, trypsin-like activity (fluorogenic substrate Bz-Phe-Val-Arg-AMC); parameters: endogenous in cells; host or cells: Saccharomyces cerevisiae (isolated native complex; purification, strain and supplier not described); conditions: 5.56 nM proteasome, Tris-buffer pH 7.5, incubated with inhibitor 1 h at 37°C, Bz-Phe-Val-Arg-AMC 8 µM, read-out: Inhibition of yeast proteasome (IC50) β2/β2'
Experimental: as §1

[3] = molecular target: T3, yeast proteasome β5/β5' (chymotrypsin-like activity) (Saccharomyces cerevisiae, UniProt P30656); experiment: Proteasome assay, chymotrypsin-like activity (fluorogenic substrate Suc-Leu-Leu-Val-Tyr-AMC); parameters: endogenous in cells; host or cells: Saccharomyces cerevisiae (isolated native complex; purification, strain and supplier not described); conditions: for IC50: chymotrypsin-like activity, 1.11 nM proteasome, Tris-buffer pH 7.5, incubated with inhibitor 1 h at 37°C, Suc-Leu-Leu-Val-Tyr-AMC 8 µM, read-out: Inhibition of yeast proteasome (IC50) β5/β5'
Experimental: as §1

[4] = molecular target: T1, yeast proteasome β1/β1' (PGPH); experiment: Proteasome assay, PGPH activity (fluorogenic substrate Z-Leu-Leu-Gly-βNA); conditions: 6.67 nM proteasome, Tris-buffer pH 7.5, incubated with inhibitor 1 h at 37°C, Z-Leu-Leu-Gly-βNA 40 µM, read-out: Inhibition of yeast proteasome (IC50) β1/β1'
Experimental: as §1

[5] = molecular target: T2, yeast proteasome β2/β2' (trypsin-like activity); experiment: Proteasome assay, trypsin-like activity (fluorogenic substrate Bz-Phe-Val-Arg-AMC); parameters: Three of the seven different β-type subunits are processed at the threonine-1 residue; conditions: 5.56 nM proteasome, Tris-buffer pH 7.5, incubated with inhibitor 1 h at 37°C, Bz-Phe-Val-Arg-AMC 8 µM, read-out: Inhibition of yeast proteasome (IC50) β2/β2'
Experimental: as §1

[6] = molecular target: T3, yeast proteasome β5/β5' (chymotrypsin-like activity); experiment: Proteasome assay, chymotrypsin-like activity (fluorogenic substrate Suc-Leu-Leu-Val-Tyr-AMC); parameters: Three of the seven different β-type subunits are processed at the threonine-1 residue; conditions: 1.11 nM proteasome, Tris-buffer pH 7.5, incubated with inhibitor 1 h at 37°C, Suc-Leu-Leu-Val-Tyr-AMC 8 µM, read-out: Inhibition of yeast proteasome (IC50) β5/β5'
Experimental: as §1

| Compound | IC50 [1] [µM] | IC50 [2] [µM] | IC50 [3] [µM] | increase in binding affinity ([3]; chymotryptic activity, compared to inhibitor 1 or to the monovalent inhibitor 2) | IC50 [4] [µM] | IC50 [5] [µM] | IC50 [6] [µM] |
| --- | --- | --- | --- | --- | --- | --- | --- |
| (PEG)18-25-[NH-CO-(CH2)2-CO-Leu-Leu-Nle-H]2 [Inhibitor 3] | > 100 | > 100 | 0.017 | about two orders of magnitude |  |  |  |
| CCCC[C@@H](C=O)NC(=O)[C@H](CC(C)C)NC(=O)[C@H](CC(C)C)NC(C)=O [Inhibitor 1, Ac-Leu-Leu-Nle-H] (Ac-Leu-Leu-[Nle]-aldehyde) |  |  |  |  | > 100 | > 100 | 2.1 |
| HOOC-(CH2)2-CO-NH-(PEG)18-25-NH-(CH2)2-CO-Leu-Leu-Nle-H [Inhibitor 2] | > 100 | > 100 | 1.8 |  |  |  |  |

— EP0982317A1, “Bivalent inhibitors of the proteasome” (Max-Planck-Gesellschaft zur Förderung der Wissenschaften …, priority 1998, dated 2000)
